Values after ≈ are worked out from the molar mass of the structure shown.
Key:
[1] = tested on: Klebsiella pneumoniae 602; assay: minimal inhibitory concentration, agar dilution method (in vitro); type: cell-based
Text: (§1) When determined according to the agar dilution method, the penicillins [I] afford the minimal inhibitory concentrations as shown in the following Table 1: […]

[2] = tested on: Staphylococcus aureus 209P; assay: as above; type: cell-based
Text: as §1

[3] = tested on: Pseudomonas aeruginosa 104; assay: as above; type: cell-based
Text: as §1

Proteus miravilis 2425 = assay: as above; type: cell-based
Text: as §1

Escherichia coli NIHJ = assay: as above; type: cell-based
Text: as §1

[4] = tested on: various gram-positive and gram-negative bacteria; conditions: background statement on prior art; cited from earlier work
Pseudomonas = conditions: background statement on prior art; cited from earlier work

SMILES | MIC [1] [µg/mL] | MIC [2] [µg/mL] | MIC [3] [µg/mL] | MIC (Proteus miravilis 2425) [µg/mL] | MIC (Escherichia coli NIHJ) [µg/mL] | growth inhibition / antimicrobial activity against gram-positive and gram-negative bacteria [4] | antimicrobial activity against Pseudomonas (Pseudomonas)
CC1(C)S[C@@H]2C(NC(=O)C(N)c3ccccc3)C(=O)N2[C@H]1C(=O)O (stereo partly drawn) [Ampicillin, 6-(α-aminophenylacetamido)-penicillanic acid, reference compound] | 50 (≈ 143 µM) | 0.2 (≈ 0.572 µM) | > 200 | 3.13 (≈ 8.96 µM) | 6.25 (≈ 17.9 µM) | inhibits the growth of various gram-positive and gram-negativebacteria | does not exert any appreciable antimicrobial activity against Pseudomonas
CC1(C)S[C@@H]2[C@H](NC(=O)C(NC(=O)c3cnc4cccnc4c3O)c3ccccc3)C(=O)N2[C@H]1C(=O)O (stereo partly drawn) [Example 27] | 6.25 (≈ 12 µM) | 0.78 (≈ 1.5 µM) | 3.13 (≈ 6 µM) | 3.13 (≈ 6 µM) | 1.56 (≈ 2.99 µM) | – | –
COc1ccc2ncc(C(=O)NC(C(=O)N[C@@H]3C(=O)N4[C@@H]3SC(C)(C)[C@@H]4C(=O)O)c3ccccc3)c(O)c2n1 (stereo partly drawn) [Example 28] | 3.13 (≈ 5.67 µM) | 0.78 (≈ 1.41 µM) | 3.13 (≈ 5.67 µM) | 1.56 (≈ 2.83 µM) | 1.56 (≈ 2.83 µM) | – | –
CC1(C)S[C@@H]2[C@H](NC(=O)C(NC(=O)c3cnc4ccc(O)nc4c3O)c3ccccc3)C(=O)N2[C@H]1C(=O)O (stereo partly drawn) [Example 29] | 3.13 (≈ 5.82 µM) | 1.56 (≈ 2.9 µM) | 3.13 (≈ 5.82 µM) | 3.13 (≈ 5.82 µM) | 1.56 (≈ 2.9 µM) | – | –
CC(=O)Nc1ccc2ncc(C(=O)NC(C(=O)N[C@@H]3C(=O)N4[C@@H]3SC(C)(C)[C@@H]4C(=O)O)c3ccccc3)c(O)c2n1 (stereo partly drawn) [Example 30] | 3.13 (≈ 5.41 µM) | 0.78 (≈ 1.35 µM) | 6.25 (≈ 10.8 µM) | 6.25 (≈ 10.8 µM) | 3.13 (≈ 5.41 µM) | – | –
CC(=O)CC(=O)Nc1ccc2ncc(C(=O)NC(C(=O)NC3C(=O)N4C3SC(C)(C)C4C(=O)O)c3ccccc3)c(O)c2n1 (stereo not drawn) [Example 31] | 6.25 (≈ 10.1 µM) | 0.78 (≈ 1.26 µM) | 6.25 (≈ 10.1 µM) | 6.25 (≈ 10.1 µM) | 3.13 (≈ 5.04 µM) | – | –
Cc1ccc2ncc(C(=O)NC(C(=O)NC3C(=O)N4C3SC(C)(C)C4C(=O)O)c3ccccc3)c(O)c2n1 (stereo not drawn) [Example 32] | 3.13 (≈ 5.84 µM) | 0.78 (≈ 1.46 µM) | 3.13 (≈ 5.84 µM) | 1.56 (≈ 2.91 µM) | 1.56 (≈ 2.91 µM) | – | –
Cc1cnc2c(O)c(C(=O)NC(C(=O)NC3C(=O)N4C3SC(C)(C)C4C(=O)O)c3ccccc3)cnc2c1 (stereo not drawn) [Example 33] | 3.13 (≈ 5.84 µM) | 1.56 (≈ 2.91 µM) | 6.25 (≈ 11.7 µM) | 3.13 (≈ 5.84 µM) | 3.13 (≈ 5.84 µM) | – | –
Cc1ccnc2c(O)c(C(=O)NC(C(=O)NC3C(=O)N4C3SC(C)(C)C4C(=O)O)c3ccccc3)cnc12 (stereo not drawn) [Example 34] | 6.25 (≈ 11.7 µM) | 1.56 (≈ 2.91 µM) | 3.13 (≈ 5.84 µM) | 3.13 (≈ 5.84 µM) | 3.13 (≈ 5.84 µM) | – | –
CNc1ccc2ncc(C(=O)NC(C(=O)NC3C(=O)N4C3SC(C)(C)C4C(=O)O)c3ccccc3)c(O)c2n1 (stereo not drawn) [Example 35] | 3.13 (≈ 5.68 µM) | 0.78 (≈ 1.42 µM) | 3.13 (≈ 5.68 µM) | 6.25 (≈ 11.4 µM) | 1.56 (≈ 2.83 µM) | – | –
CCCCNc1ccc2ncc(C(=O)NC(C(=O)NC3C(=O)N4C3SC(C)(C)C4C(=O)O)c3ccccc3)c(O)c2n1 (stereo not drawn) [Example 36] | 3.13 (≈ 5.28 µM) | 1.56 (≈ 2.63 µM) | 3.13 (≈ 5.28 µM) | 3.13 (≈ 5.28 µM) | 1.56 (≈ 2.63 µM) | – | –
CCN(CC)c1ccc2ncc(C(=O)NC(C(=O)NC3C(=O)N4C3SC(C)(C)C4C(=O)O)c3ccccc3)c(O)c2n1 (stereo not drawn) [Example 37] | 0.78 (≈ 1.32 µM) | 0.78 (≈ 1.32 µM) | 3.13 (≈ 5.28 µM) | 1.56 (≈ 2.63 µM) | 0.78 (≈ 1.32 µM) | – | –
CN(C)c1ccc2ncc(C(=O)NC(C(=O)NC3C(=O)N4C3SC(C)(C)C4C(=O)O)c3cccs3)c(O)c2n1 (stereo not drawn) [Example 38] | 1.56 (≈ 2.73 µM) | 0.78 (≈ 1.37 µM) | 6.25 (≈ 11 µM) | 1.56 (≈ 2.73 µM) | 1.56 (≈ 2.73 µM) | – | –
CC1(C)SC2C(NC(=O)C(NC(=O)c3cnc4cccnc4c3O)c3cccs3)C(=O)N2C1C(=O)O (stereo not drawn) [Example 39] | 3.13 (≈ 5.93 µM) | 0.78 (≈ 1.48 µM) | 6.25 (≈ 11.8 µM) | 3.13 (≈ 5.93 µM) | 1.56 (≈ 2.96 µM) | – | –
CC1(C)SC2C(NC(=O)C(NC(=O)c3cnc4ccc(N)nc4c3O)c3ccccc3)C(=O)N2C1C(=O)O (stereo not drawn) [Example 40] | 1.56 (≈ 2.91 µM) | 0.78 (≈ 1.45 µM) | 3.13 (≈ 5.83 µM) | 1.56 (≈ 2.91 µM) | 1.56 (≈ 2.91 µM) | – | –
CCNc1ccc2ncc(C(=O)NC(C(=O)NC3C(=O)N4C3SC(C)(C)C4C(=O)O)c3ccccc3)c(O)c2n1 (stereo not drawn) [Example 41] | 6.25 (≈ 11.1 µM) | 0.78 (≈ 1.38 µM) | 6.25 (≈ 11.1 µM) | 6.25 (≈ 11.1 µM) | 3.13 (≈ 5.54 µM) | – | –
CCCCN(CCCC)c1ccc2ncc(C(=O)NC(C(=O)NC3C(=O)N4C3SC(C)(C)C4C(=O)O)c3ccccc3)c(O)c2n1 (stereo not drawn) [Example 42] | 3.13 (≈ 4.82 µM) | 1.56 (≈ 2.4 µM) | 3.13 (≈ 4.82 µM) | 3.13 (≈ 4.82 µM) | 3.13 (≈ 4.82 µM) | – | –
CC1(C)SC2C(NC(=O)C(NC(=O)c3cnc4ccncc4c3O)c3ccccc3)C(=O)N2C1C(=O)O (stereo not drawn) [Example 43] | 6.25 (≈ 12 µM) | 0.78 (≈ 1.5 µM) | 6.25 (≈ 12 µM) | 12.5 (≈ 24 µM) | 12.5 (≈ 24 µM) | – | –

SMILES | MIC [1] [µg/mL] | MIC [2] [µg/mL] | MIC [3] [µg/mL] | MIC (Proteus miravilis 2425) [µg/mL] | MIC (Escherichia coli NIHJ) [µg/mL] | growth inhibition / antimicrobial activity against gram-positive and gram-negative bacteria [4] | antimicrobial activity against Pseudomonas (Pseudomonas)
COc1nccc2ncc(C(=O)NC(C(=O)NC3C(=O)N4C3SC(C)(C)C4C(=O)O)c3ccccc3)c(O)c12 (stereo not drawn) [Example 44] | 12.5 (≈ 22.7 µM) | 0.78 (≈ 1.41 µM) | 12.5 (≈ 22.7 µM) | 6.25 (≈ 11.3 µM) | 12.5 (≈ 22.7 µM) | – | –
CN(C)c1nccc2ncc(C(=O)NC(C(=O)NC3C(=O)N4C3SC(C)(C)C4C(=O)O)c3ccccc3)c(O)c12 (stereo not drawn) [Example 45] | 3.13 (≈ 5.54 µM) | 0.78 (≈ 1.38 µM) | 12.5 (≈ 22.1 µM) | 6.25 (≈ 11.1 µM) | 6.25 (≈ 11.1 µM) | – | –
CN(C)c1ncc2c(O)c(C(=O)NC(C(=O)NC3C(=O)N4C3SC(C)(C)C4C(=O)O)c3ccccc3)cnc2n1 (stereo not drawn) [Example 46] | 1.56 (≈ 2.76 µM) | 1.56 (≈ 2.76 µM) | 3.13 (≈ 5.53 µM) | 3.13 (≈ 5.53 µM) | 3.13 (≈ 5.53 µM) | – | –
CC1(C)SC2C(NC(=O)C(NC(=O)c3cnc4ncncc4c3O)c3ccccc3)C(=O)N2C1C(=O)O (stereo not drawn) [Example 47] | 3.13 (≈ 5.99 µM) | 0.78 (≈ 1.49 µM) | 3.13 (≈ 5.99 µM) | 6.25 (≈ 12 µM) | 3.13 (≈ 5.99 µM) | – | –
Cc1nc(C)c2c(O)c(C(=O)NC(C(=O)NC3C(=O)N4C3SC(C)(C)C4C(=O)O)c3ccccc3)cnc2n1 (stereo not drawn) [Example 48] | 3.13 (≈ 5.68 µM) | 0.78 (≈ 1.42 µM) | 12.5 (≈ 22.7 µM) | 6.25 (≈ 11.4 µM) | 12.5 (≈ 22.7 µM) | – | –
CC1(C)SC2C(NC(=O)C(NC(=O)c3cnc4nc(N)ncc4c3O)c3ccccc3)C(=O)N2C1C(=O)O (stereo not drawn) [Example 49] | 6.25 (≈ 11.6 µM) | 0.78 (≈ 1.45 µM) | 12.5 (≈ 23.3 µM) | 6.25 (≈ 11.6 µM) | 6.25 (≈ 11.6 µM) | – | –
CC1(C)SC2C(NC(=O)C(NC(=O)c3cnc4cncnc4c3O)c3ccccc3)C(=O)N2C1C(=O)O (stereo not drawn) [Example 50] | 0.78 (≈ 1.49 µM) | 0.78 (≈ 1.49 µM) | 3.13 (≈ 5.99 µM) | 1.56 (≈ 2.99 µM) | 1.56 (≈ 2.99 µM) | – | –
CN(C)c1ncc2ncc(C(=O)NC(C(=O)NC3C(=O)N4C3SC(C)(C)C4C(=O)O)c3ccccc3)c(O)c2n1 (stereo not drawn) [Example 51] | 0.78 (≈ 1.38 µM) | 0.78 (≈ 1.38 µM) | 3.13 (≈ 5.53 µM) | 1.56 (≈ 2.76 µM) | 0.78 (≈ 1.38 µM) | – | –
COc1nc(O)nc2c(O)c(C(=O)NC(C(=O)NC3C(=O)N4C3SC(C)(C)C4C(=O)O)c3ccccc3)cnc12 (stereo not drawn) [Example 52] | 3.13 (≈ 5.51 µM) | 1.56 (≈ 2.74 µM) | 6.25 (≈ 11 µM) | 3.13 (≈ 5.51 µM) | 3.13 (≈ 5.51 µM) | – | –
CC1(C)SC2C(NC(=O)C(NC(=O)c3cnc4cnc(O)nc4c3O)c3ccccc3)C(=O)N2C1C(=O)O (stereo not drawn) [Example 53] | 6.25 (≈ 11.6 µM) | 1.56 (≈ 2.9 µM) | 6.25 (≈ 11.6 µM) | 6.25 (≈ 11.6 µM) | 3.13 (≈ 5.81 µM) | – | –
COc1nc(OC)c2ncc(C(=O)NC(C(=O)NC3C(=O)N4C3SC(C)(C)C4C(=O)O)c3ccccc3)c(O)c2n1 (stereo not drawn) [Example 54] | 3.13 (≈ 5.37 µM) | 1.56 (≈ 2.68 µM) | 6.25 (≈ 10.7 µM) | 3.13 (≈ 5.37 µM) | 6.25 (≈ 10.7 µM) | – | –
Cc1nc(C)c2ncc(C(=O)NC(C(=O)NC3C(=O)N4C3SC(C)(C)C4C(=O)O)c3ccccc3)c(O)c2n1 (stereo not drawn) [Example 55] | 1.56 (≈ 2.83 µM) | 0.78 (≈ 1.42 µM) | 3.13 (≈ 5.68 µM) | 3.13 (≈ 5.68 µM) | 3.13 (≈ 5.68 µM) | – | –
Cc1ncc2ncc(C(=O)NC(C(=O)NC3C(=O)N4C3SC(C)(C)C4C(=O)O)c3ccccc3)c(O)c2n1 (stereo not drawn) [Example 56] | 3.13 (≈ 5.83 µM) | 0.78 (≈ 1.45 µM) | 3.13 (≈ 5.83 µM) | 6.25 (≈ 11.6 µM) | 3.13 (≈ 5.83 µM) | – | –
CC1(C)SC2C(NC(=O)C(NC(=O)c3cnc4cnc(NC(=O)OCc5ccccc5)nc4c3O)c3ccccc3)C(=O)N2C1C(=O)O (stereo not drawn) [Example 57] | 3.13 (≈ 4.66 µM) | 1.56 (≈ 2.32 µM) | 6.25 (≈ 9.3 µM) | 3.13 (≈ 4.66 µM) | 6.25 (≈ 9.3 µM) | – | –
CC1(C)SC2C(NC(=O)C(NC(=O)c3cnc4cncnc4c3O)c3cccs3)C(=O)N2C1C(=O)O (stereo not drawn) [Example 58] | 1.56 (≈ 2.95 µM) | 0.78 (≈ 1.48 µM) | 3.13 (≈ 5.92 µM) | 3.13 (≈ 5.92 µM) | 1.56 (≈ 2.95 µM) | – | –
CC1(C)SC2C(NC(=O)C(NC(=O)c3cnc4cnc(N)nc4c3O)c3ccccc3)C(=O)N2C1C(=O)O (stereo not drawn) [Example 59] | 1.56 (≈ 2.9 µM) | 0.78 (≈ 1.45 µM) | 3.13 (≈ 5.82 µM) | 3.13 (≈ 5.82 µM) | 3.13 (≈ 5.82 µM) | – | –
COc1cc2ncc(C(=O)NC(C(=O)NC3C(=O)N4C3SC(C)(C)C4C(=O)O)c3ccccc3)c(O)c2cn1 (stereo not drawn) [Example 60] | 3.13 (≈ 5.67 µM) | 1.56 (≈ 2.83 µM) | 12.5 (≈ 22.7 µM) | 3.13 (≈ 5.67 µM) | 6.25 (≈ 11.3 µM) | – | –
